Ten molecules from patent publication US20110189260A1, “USE OF ZINC CHELATORS TO INHIBIT BIOFILM FORMATION” (UNIVERSITY OF CINCINNATI, priority 2008, published 2011) can be followed below.

“Also recorded” adds a separate entry of the source.

Holding throughout (type): cell-based
For assay [1], the system named is S. epidermidis RP62A biofilms. The assay can be described thus: RP62A biofilms on polystyrene visualized with crystal violet (FIG. 3A, 3C, 4, 7, 8). The following applies: RP62A; for effect of divalent cation salt on biofilm inhibition by DTPA: up to 60 μM salt, FIG. 7. How it is done: FIG. 3. (A) S. epidermidis RP62A biofilms formed on polystyrene and were visualized with crystal violet; addition of the Zn^2+ chelator DTPA (≧30 μM) inhibits biofilm formation. Representative wells have been scanned (bottom). Untreated (“RP62A”) and vehicle (“HCl”) controls are shown. Error bars show standard deviation (* indicates p<0.05 relative to untreated control; n=3); (B) Methicillin-resistant S. aureus USA300 biofilms form on fibronectin-coated plates but are inhibited by addition of DTPA (≧30 μM). (*: p<0.05; n=4); (C) Addition of 5-20 μM ZnCl2 at a minimal inhibitory dose of DTPA (30 μM) rescues biofilm formation by RP62A.
FIG. 4. […] (*: p<0.05 relative to RP62A control at the relevant Zn^2+ concentration; n=3); (B) Dose response of biofilm inhibition by MBP-Brpt1.5 at a fixed 1 mM ZnCl2 concentration. (*: p<0.0005; n=3); (C) The “zinc zipper” model for intercellular adhesion in staphylococcal biofilms mediated by zinc-dependent self-association of G5 domains.
FIG. 7. […] All data at 30 μM DTPA show statistically significant decreases compared to no-treatment control (RP62A). Statistically significant increases over the 0 μM MnCl2/30 μM DTPA datapoint are marked with an asterisk (*).
To test the physiological role of Zn^2+-mediated G5 adhesion in the formation of staphylococcal biofilms, both S. epidermidis and S. aureus biofilms were grown in culture in the presence or absence of the Zn^2+ chelator diethylenetriaminepentaacetic acid (DTPA). DTPA was non-toxic at all concentrations tested (up to 100 μM). S. epidermidis strain RP62A formed robust biofilms when cultured in media alone, but biofilm growth was inhibited by non-toxic doses of DTPA (≧30 μM) (FIG. 3A).
To determine whether Zn^2+-dependent biofilm formation is specifically dependent upon G5 domain-mediated self-assembly, soluble Brpt1.5 was added to S. epidermidis RP62A biofilms as a maltose-binding protein (MBP) fusion. Because of the higher Zn^2+ concentrations required to induce dimerization in the short construct compared to full-length Aap, inhibition by MBP-Brpt1.5 was tested at Zn^2+ concentrations ranging up to 1 mM. RP62A biofilms were inhibited by soluble MBP-Brpt1.5 in the presence of 0.75 and 1 mM ZnCl2, whereas addition of MBP alone had no effect (FIG. 4A). […] Thus, addition of even a single intact zinc adhesion module in a soluble form is capable of inhibiting biofilm formation, highlighting the role of this domain as a Zn^2+-dependent adhesion module in staphylococcal biofilms.

Assay [2] has as its system Staphylococcus aureus Strain COL. As to the kind of experiment: Biofilm formation assay in FBS pre-treated 96 well plates, crystal violet (Example 10). The following applies: 2% sucrose, 36-40 hours. The procedure: 3 ml overnight cultures were grown in blood-heart infusion broth (BHI) shaking at 37° C., where cultures were diluted 1:25 for use in the biofilm assay.
2% sucrose (20 μl from a 20% sucrose stock) was added to each well prior to the addition of the bacterial culture to promote biofilm formation. In addition, 96 well microtiter plates were pre-treated with fetal bovine serum (FBS) at 4° C. for at least 24 hours prior to use. The FBS was aspirated prior to addition of chelators and sucrose for the assay. […] 20 μl of each stock solution (200, 400, 800, 1600, 3200, 6400, 13000, or 26000 μM chelator) was added to each well. 200 μl of the 1:25 dilution of COL bacterial culture (as previously specified) was added to each well. Controls with bacterial culture media only and bacterial culture media plus vehicle controls only (i.e, final concentrations 10 mM HCl, 10% ethanol, and 10 mM NaOH) were added to wells alone without chelator. The 96 well plates were then incubated 36-40 hours statically at 37° C. Media was aspirated by pipet and wells were washed twice with filtered water. The plates were dried by inversion for 1 hour, and stained with 0.1% crystal violet for 15 minutes. Crystal violet was then aspirated by pipet and washed once with filtered water. The plates were then read on a spectrophotometer at a wavelength of 570 nm. An absorbance greater than 0.1 indicates biofilm formation.

For assay [3], the system named is Methicillin-Resistant Staphylococcus epidermidis Strain RP62a. The assay can be described thus: Biofilm formation assay in 96 well plates, crystal violet, absorbance at 570 nm (Example 8). The note with it: 18-24 hours, 37° C. How it is done: S. epidermidis strain RP62a (ATCC 35984) was obtained as a glycerol stock from ATCC. 3 ml overnight cultures were grown in tryptic soy broth (TSB, BD Biomedical), shaking at 37° C., and cultures were diluted 1:200 in TSB for use in the biofilm assay.
Each chelator (prepared in Examples 1-6) was added directly to a 96 well microtiter plate in a series of dilutions. 20 μl of each stock solution (200, 400, 800, 1600, 3200, 6400, 13000, or 26000 μM chelator) was added to each well. 200 μl of the 1:200 dilution of RP62a bacterial culture (as previously specified) was added to each well. Controls with bacterial culture media only and bacterial culture media plus vehicle controls only (i.e., final concentrations 10 mM HCl, 10% ethanol, or 10 mM NaOH) were added to wells alone without chelator. The 96 well plates were then incubated 18-24 hours statically at 37° C. Media was aspirated by pipet and wells were washed twice with filtered water. The plates were dried by inversion for 1 hour, and stained with 0.1% crystal violet for 15 minutes. Crystal violet was then aspirated by pipet and washed once with filtered water. The plates were then read on a spectrophotometer at a wavelength of 570 nm. An absorbance greater than 0.1 indicates biofilm formation.

For assay [4], the system named is Methicillin-Resistant Staphylococcus aureus Strain USA300. The assay can be described thus: Biofilm formation assay in fibronectin pre-treated 96 well plates, crystal violet (Example 11). The note with it: USA300, 2% glucose, 36-40 hours. The procedure:
S. aureus strain USA300 was obtained from Daniel Hassett (University of Cincinnati) as a glycerol stock. 3 ml overnight cultures were grown in blood-heart infusion broth (BHI) shaking at 37° C., where cultures were diluted 1:25 for use in the biofilm assay. 2% glucose (20 ul from a 20% glucose stock) was added to each well prior to the addition of bacterial culture to promote biofilm formation. In addition, 96 well microtiter plates were pre-treated with human fibronectin (BD biomedical purchased from Fisher scientific). The fibronectin was aspirated prior to addition of chelators and glucose for the assay. Each chelator (prepared in Examples 1-6) was added directly to a 96 well microtiter plate in a series of dilutions. 20 μl of each stock solution (200, 400, 800, 1600, 3200, 6400, 13000, or 26000 μM chelator) was added to each well. 200 μl of the 1:25 dilution of USA300 bacterial culture dilution (as previously specified) were added to each well. Controls with bacterial culture media only and bacterial culture media plus vehicle controls only (final concentrations 10 mM HCl, 10% ethanol, and 10 mM NaOH) were added to wells alone without chelator. The 96 well plates were then incubated 36-40 hours statically at 37° C. Media was aspirated by pipet and wells were washed twice with filtered water. The plates were dried by inversion for 1 hour, and stained with 0.1% crystal violet for 15 minutes. Crystal violet was then aspirated by pipet and washed once with filtered water. The plates were then read on a spectrophotometer at a wavelength of 570 nm. An absorbance greater than 0.1 indicates biofilm formation.

Assay [5] concerns Staphylococcus aureus Strain Rosenbach SA113. As to the kind of experiment: Biofilm formation assay in FBS pre-treated 96 well plates, crystal violet (Example 9). The note with it: SA113, 2% glucose, 36-40 hours. How it is done:
In addition, 96 well microtiter plates were pre-treated with fetal bovine serum (FBS) at 4° C. for at least 24 hours prior to use. The FBS was aspirated prior to addition of chelators and glucose for the assay. […] The 96 well plates were then incubated 36-40 hours statically at 37° C. Media was aspirated by pipet and wells were washed twice with filtered water. The plates were dried by inversion for 1 hour, and stained with 0.1% crystal violet for 15 minutes. Crystal violet was then aspirated by pipet and washed once with filtered water. The plates were then read on a spectrophotometer at a wavelength of 570 nm.

On to `[Cl-].[Cl-].[Mg+2]` [MgCl2], for which the “effect of divalent cation salt on biofilm inhibition by DTPA” value (from here on “effect … on biofilm inhibition by DTPA”) in assay [1] (30 μM DTPA) is listed as “does not reverse; also recorded: no effect”.

Regarding `[Ca+2].[Cl-].[Cl-]` [CaCl2], the “effect … on biofilm inhibition by DTPA” value in assay [1] (30 μM DTPA) was “does not reverse; also recorded: no effect”.

Consider `O=C(O)CN(CCN(CC(=O)O)CC(=O)O)CC(=O)O` [EDTA, ethylenediaminetetra-acetic acid], for which the “chelator concentration above which biofilms were inhibited (absorbance of 0.1 or less)” value is > 160 µM in assay [2] and > 2.6 mM in assay [4]. Further, the “chelator concentration at which biofilms were diminished but not cleared” value in assay [2] was determined as 20 µM; in assay [3] it was 40 µM; in assay [4], 1300 µM; in assay [5], 320 µM. Moreover, the “chelator concentration at which biofilms were inhibited (absorbance of 0.1 or less)” value in assay [3] worked out at 320 µM.

Take `[Cl-].[Cl-].[Sr+2]` [SrCl2]: the “effect … on biofilm inhibition by DTPA” value in assay [1] (30 μM DTPA) is reported as “does not reverse; also recorded: no effect”.

Consider `[Cl][Mn][Cl]` [MnCl2], for which, in assay [1] (30 μM DTPA, FIG. 7D), the “concentration that effected partial rescue of biofilm formation” value was ≥ 10 µM. Also, the “effect … on biofilm inhibition by DTPA” value in assay [1] (30 μM DTPA) was “partial rescue”.

With `CCN(CC)C(=S)S` [DEDTC, diethyldithiocarbamate], in assay [2], the “chelator concentration above which biofilms were inhibited (absorbance of 0.1 or less)” value was > 80 µM and the “chelator concentration at which biofilms were diminished but not cleared” value amounted to 20 µM. Moreover, in assay [3], the “chelator concentration at which biofilms were diminished but not cleared” value was determined as 20 µM and the “chelator concentration at which biofilms were inhibited (absorbance of 0.1 or less)” value amounted to 1300 µM. Also, in assay [5], the “chelator concentration at which biofilms were diminished but not cleared” value is 80 µM and the “chelator concentration at which biofilms were inhibited (absorbance of 0.1 or less)” value came out at 80 µM.

For the molecule `c1ccc(CN(CCN(Cc2ccccn2)Cc2ccccn2)Cc2ccccn2)nc1` [TPEN, N,N,N′,N′-tetrakis(2-pyrdiylmethyl)ethylenediamine], the “chelator concentration at which biofilms were inhibited (absorbance of 0.1 or less)” value was 20 µM in assay [3] and 40 µM in assay [5]. Moreover, the “chelator concentration at which biofilms were diminished but not cleared” value in assay [4] and in assay [5] was 20 µM each time.

As to `O=C(O)CNCCNCC(=O)O` [EDDA, ethylenediamine-N,N′-diacetic acid], the “chelator concentration at which biofilms were diminished but not cleared” value in assay [2] was 160 µM; in assay [3] it was 80 µM; in assay [5] it was 20 µM. Besides, the “chelator concentration at which biofilms were inhibited (absorbance of 0.1 or less)” value in assay [5] was found to be 640 µM.

As to `c1cnc2c(c1)ccc1cccnc12` [1,10-phenanthroline], the “chelator concentration above which biofilms were inhibited (absorbance of 0.1 or less)” value in assay [2] is > 320 µM; in assay [4] it was > 1.3 mM. Besides, the “chelator concentration at which biofilms were diminished but not cleared” value in assay [2] was 80 µM; in assay [3], 80 µM; in assay [4], 160 µM; in assay [5] it was 320 µM. In addition, the “chelator concentration at which biofilms were inhibited (absorbance of 0.1 or less)” value in assay [3] worked out at 640 µM; in assay [5], 1300 µM.

B1: MBP-Brpt1.5: soluble Brpt1.5 as a maltose-binding protein (MBP) fusion (protein)
chain: VDGDSITSTEEIPFDKKREFDPNLAPGTEKVVQKGEPGTKTITTPTTKNPLTGEKVGEGEPTEKITKQPVDEIVHYGGEQIPQGHKDEFDPNAPVDSKTEVPGKPGVKNPDTGEVVTPPVDDVTKYGPVDGDSITSTEEIPFDKKREFDPNLAPGTEKVVQKGEPGTKTITTPTTKNPLTGEKVGEGKSTEKVTKQPVDEIVEYGPTK
modifications: left off: large carriers
Regarding B1, the “inhibition of biofilms by soluble protein” value in assay [1] (fixed 750 μM ZnCl2, FIG. 8) is given as “Dose-dependent biofilm inhibition”; in assay [1] (in the presence of 0.75-1 mM ZnCl2, FIG. 4A), “inhibits RP62A biofilms in a dose-dependent manner; also recorded: inhibited”. In addition, the “concentration that completely abolished biofilm formation” value in assay [1] (fixed 1 mM ZnCl2, FIG. 4B) was in the range of 10 to 22 µM.
